Target: E. coli GUS (Escherichia coli, UniProt P05804)
Test: In vitro EcGUS inhibition, cleavage of PNPG by purified E. coli GUS
Type: biochemical
Details: PNPG substrate, 37° C., 2 hours
Method: To assess GUS inhibition, cleavage of p-nitrophenyl-β-D-glucuronide (PNPG) by purified E. coli GUS in the presence of inhibitor was measured. The reaction was performed in 96-well clear-bottom plates at a volume of 50 μL. Each reaction contained 5 μL of 100 nM E. coli GUS, 5 μL of inhibitor at various concentrations, 10 μL of 250 mM HEPES and 250 mM NaCl assay buffer, and 30 μL of 1.5 mM PNPG. The reaction was initiated by addition of PNPG and incubated at 37° C. for 2 hours. End point absorbance values at 410 nm were measured using a PHERAstar Plus microplate reader. The resulting data were fit with a four-parameter logistic log function in SigmaPlot 13.0 to determine IC50 values. IC50 was defined as the concentration of inhibitor that yields a 50% reduction in product formation at equilibrium.

Sequence of E. coli GUS (P05804 whole entry): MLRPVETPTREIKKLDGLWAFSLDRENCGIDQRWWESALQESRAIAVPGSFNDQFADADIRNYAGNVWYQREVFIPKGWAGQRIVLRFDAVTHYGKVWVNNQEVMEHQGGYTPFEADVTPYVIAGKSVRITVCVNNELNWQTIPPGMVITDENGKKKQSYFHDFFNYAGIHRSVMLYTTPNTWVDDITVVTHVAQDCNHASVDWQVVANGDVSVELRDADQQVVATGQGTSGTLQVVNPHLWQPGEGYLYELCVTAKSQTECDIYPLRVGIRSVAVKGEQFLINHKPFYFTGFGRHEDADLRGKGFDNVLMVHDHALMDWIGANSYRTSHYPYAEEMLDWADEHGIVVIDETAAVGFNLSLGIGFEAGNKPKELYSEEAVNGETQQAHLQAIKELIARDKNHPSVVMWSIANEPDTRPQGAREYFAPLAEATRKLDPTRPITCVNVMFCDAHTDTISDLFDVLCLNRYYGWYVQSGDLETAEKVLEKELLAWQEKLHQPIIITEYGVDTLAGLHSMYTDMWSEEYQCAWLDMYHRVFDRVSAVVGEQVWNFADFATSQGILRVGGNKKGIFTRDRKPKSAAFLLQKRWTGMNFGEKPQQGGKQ

SMILES | IC50
CN1CCN(c2nnnc3c2sc2nc(N4CCOCC4)c4c(c23)CCCC4)CC1 [Compound 2] | 37600 ± 700 nM
C1CCc2c(c(N3CCOCC3)nc3sc4c(NC5CCNCC5)nnnc4c23)C1 [Compound 4] | 30000 ± 10000 nM
C1CCc2c(c(N3CCOCC3)nc3sc4c(N5CC6CC5CN6)nnnc4c23)C1 (centres unmarked) [Compound 5] | 9000 ± 2000 nM
C[C@@H]1CN(c2nnnc3c2sc2nc(N4CCOCC4)c4c(c23)CCCC4)CCN1 [Compound 6] | 2400 ± 400 nM
C[C@H]1CN(c2nnnc3c2sc2nc(N4CCOCC4)c4c(c23)CCCC4)CCN1 [Compound 7] | 2400 ± 300 nM
C1CCc2c(c(N3CCOCC3)nc3sc4c(N5CCCNCC5)nnnc4c23)C1 [Compound 8] | 9000 ± 2000 nM
NCCNc1nnnc2c1sc1nc(N3CCOCC3)c3c(c12)CCCC3 [Compound 9] | 5600 ± 500 nM
C1CCc2c(c(N3CCNCC3)nc3sc4c(N5CCNCC5)nnnc4c23)C1 [Compound 12] | 130 ± 10 nM
C1CCN(c2nc3sc4c(N5CCNCC5)nnnc4c3c3c2CCCC3)CC1 [Compound 13] | 500 ± 200 nM
C1CCC(Nc2nc3sc4c(N5CCNCC5)nnnc4c3c3c2CCCC3)CC1 [Compound 14] | 800 ± 200 nM
CN(C)c1nc2sc3c(N4CCNCC4)nnnc3c2c2c1CCCC2 [Compound 15] | 130 ± 10 nM
c1ccc(CNc2nc3sc4c(N5CCNCC5)nnnc4c3c3c2CCCC3)cc1 [Compound 17] | 190 ± 40 nM
c1cc2c(nc1N1CCOCC1)sc1c(N3CCNCC3)nnnc12 [Compound 19] | 170 ± 40 nM
CNc1nc(N2CCNCC2)c2sc3nc(N4CCOCC4)ccc3c2n1 [Compound 21] | 100 ± 20 nM
c1ccc(-c2ccc3c(n2)sc2c(N4CCNCC4)nnnc23)cc1 [Compound 22] | 150 ± 50 nM
c1ccc(-c2ccc3c(n2)sc2c(N4CCNCC4)ncnc23)cc1 [Compound 23] | 130 ± 30 nM
CNc1nc(N2CCNCC2)c2sc3nc(-c4ccccc4)ccc3c2n1 [Compound 24] | 180 ± 90 nM
CN(C)c1nc(N2CCNCC2)c2sc3nc(-c4ccccc4)ccc3c2n1 [Compound 25] | 190 ± 90 nM
OCCNc1nc(N2CCNCC2)c2sc3nc(-c4ccccc4)ccc3c2n1 [Compound 26] | 120 ± 20 nM
CN(C)c1ccc2c(n1)sc1c(N3CCNCC3)nnnc12 [Compound 27] | 80 ± 30 nM
CNc1nc(N2CCNCC2)c2sc3nc(N(C)C)ccc3c2n1 [Compound 28] | 42 ± 6 nM
CNc1ccc2c(n1)sc1c(N3CCNCC3)nc(NC)nc12 [Compound 29] | 40 ± 8 nM
c1cnc2sc3c(N4CCNCC4)ncnc3c2c1 [Compound 30] | 80 ± 20 nM
CNc1nc(N2CCNCC2)c2sc3ncccc3c2n1 [Compound 31] | 36 ± 2 nM

Tested on: panel of purified GUS enzymes present in the human gut microbiota
Test: SN-38-G processing by panel of purified GUS enzymes, with inhibitors
Type: biochemical
Details: enzymes other than E. coli GUS

SMILES | effects on other GUS enzymes, including others from the L1 category
CCOc1ccc(NC(=S)N(CCO)Cc2cc3cc(C)cc(C)c3[nH]c2=O)cc1 [Inh1] | weak effects

Tested on: gut microbial GUS enzymes
Test: not given
Details: co-treatment with irinotecan; cited from earlier work

SMILES | gut toxicity and diarrhea
CCOc1ccc(NC(=S)N(CCO)Cc2cc3cc(C)cc(C)c3[nH]c2=O)cc1 [Inh1] | alleviated gut toxicity and diarrhea

Tested on: GUS activity in human fecal extracts
Test: not given
Details: cited from earlier work

SMILES | block of GUS activity in human fecal extracts
Clc1ccc2c(c1)C(N1CCNCC1)=Nc1ccccc1O2 [amoxapine] | incompletely blocks

Tested on: bacteria cultured in vitro
Test: not given
Details: cited from earlier work

SMILES | viability of bacteria cultured in vitro
Clc1ccc2c(c1)C(N1CCNCC1)=Nc1ccccc1O2 [amoxapine] | reduced the viability

Tested on: not given
Test: not given
Details: rats; cited from earlier work

SMILES | NSAID-induced intestinal anastomosis after surgical resection
CCOc1ccc(NC(=S)N(CCO)Cc2cc3cc(C)cc(C)c3[nH]c2=O)cc1 [Inh1] | reduce NSAID-induced intestinal anastomosis
